Experimental data taken from PubChem BioAssay (NCI).
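Briefly, cells in 96-well plates were exposed to five compound concentrations for 48 h, and endpoints were estimated by linear interpolation. GI50 marks 50% less growth. The concentration for full growth arrest is given as TGI.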

Columns and labels:
Test in all cases: NCI tumour cell line growth inhibition, 48 h
MALME-3M melanoma = test system: MALME-3M melanoma
SF-268 CNS = test system: SF-268 CNS
LOX IMVI melanoma = test system: LOX IMVI melanoma
SNB-19 CNS = test system: SNB-19 CNS
COLO 205 colon = test system: COLO 205 colon
RXF 393 renal = test system: RXF 393 renal
SK-OV-3 ovarian = test system: SK-OV-3 ovarian
OVCAR-4 ovarian = test system: OVCAR-4 ovarian
UACC-62 melanoma = test system: UACC-62 melanoma
MDA-MB-435 = test system: MDA-MB-435
NCI-H226 lung = test system: NCI-H226 lung
PC-3 prostate = test system: PC-3 prostate
HL-60(TB) leukemia = test system: HL-60(TB) leukemia
IGROV1 ovarian = test system: IGROV1 ovarian
SN12C renal = test system: SN12C renal
KM12 colon = test system: KM12 colon
HOP-62 NSCLC = test system: HOP-62 NSCLC
HOP-92 NSCLC = test system: HOP-92 NSCLC
UACC-257 melanoma = test system: UACC-257 melanoma
MOLT-4 leukemia = test system: MOLT-4 leukemia
DU-145 prostate = test system: DU-145 prostate
SNB-75 CNS = test system: SNB-75 CNS
HCC-2998 colon = test system: HCC-2998 colon
HT29 colon = test system: HT29 colon
SF-539 CNS = test system: SF-539 CNS
SF-295 CNS = test system: SF-295 CNS
HS 578T breast = test system: HS 578T breast
CAKI-1 renal = test system: CAKI-1 renal
K-562 leukemia = test system: K-562 leukemia
RPMI-8226 leukemia = test system: RPMI-8226 leukemia
A549 NSCLC = test system: A549 NSCLC
NCI-H522 lung = test system: NCI-H522 lung
NCI-H23 lung = test system: NCI-H23 lung
SW-620 colon = test system: SW-620 colon
EKVX NSCLC = test system: EKVX NSCLC
M14 melanoma = test system: M14 melanoma
CCRF-CEM leukemia = test system: CCRF-CEM leukemia
A498 renal = test system: A498 renal
UO-31 renal = test system: UO-31 renal
BT-549 breast = test system: BT-549 breast
NCI-H460 lung = test system: NCI-H460 lung
786-0 renal = test system: 786-0 renal
U251 CNS = test system: U251 CNS
ACHN renal = test system: ACHN renal
MCF7 breast = test system: MCF7 breast
SR leukemia = test system: SR leukemia
OVCAR-5 ovarian = test system: OVCAR-5 ovarian
NCI/ADR-RES ovarian = test system: NCI/ADR-RES ovarian
SK-MEL-5 melanoma = test system: SK-MEL-5 melanoma
MDA-MB-231 breast = test system: MDA-MB-231 breast
SK-MEL-2 melanoma = test system: SK-MEL-2 melanoma
SK-MEL-28 melanoma = test system: SK-MEL-28 melanoma
TK-10 renal = test system: TK-10 renal
HCT-15 colon = test system: HCT-15 colon

## CC1(C)CC[C@]23CC[C@]4(C)[C@H](CC[C@@H]5[C@@]6(C)CCCN(CO)C(C)(C)[C@@H]6CC[C@]54C)[C@H]2[C@H]1OC3
MALME-3M melanoma
  GI50: 2.64 µM
  TGI: 8.69 µM
SF-268 CNS
  GI50: 6.61 µM
  TGI: 22.8 µM
LOX IMVI melanoma
  GI50: 1.57 µM
  TGI: 2.93 µM
SNB-19 CNS
  GI50: 3.09 µM
  TGI: 12 µM
COLO 205 colon
  GI50: 1.7 µM
  TGI: 3.35 µM
RXF 393 renal
  GI50: 3.27 µM
  TGI: 18 µM
SK-OV-3 ovarian
  GI50: 13.9 µM
  TGI: 27.7 µM
OVCAR-4 ovarian
  GI50: 3.42 µM
  TGI: 13.4 µM
UACC-62 melanoma
  GI50: 4.83 µM
  TGI: 17.8 µM
MDA-MB-435
  GI50: 2.4 µM
  TGI: 6.67 µM
NCI-H226 lung
  GI50: 2.62 µM
  TGI: 7.85 µM
PC-3 prostate
  GI50: 2.91 µM
  TGI: 13.9 µM
HL-60(TB) leukemia
  GI50: 2.01 µM
  TGI: 5.07 µM
IGROV1 ovarian
  GI50: 1.91 µM
  TGI: 4 µM
SN12C renal
  GI50: 4.89 µM
  TGI: 18.6 µM
KM12 colon
  GI50: 1.73 µM
  TGI: 3.5 µM
HOP-62 NSCLC
  GI50: 2.91 µM
  TGI: 12.4 µM
HOP-92 NSCLC
  GI50: 1.68 µM
  TGI: 4.75 µM
UACC-257 melanoma
  GI50: 10.6 µM
  TGI: 24.6 µM
MOLT-4 leukemia
  GI50: 2.99 µM
  TGI: 10.2 µM
DU-145 prostate
  GI50: 3 µM
  TGI: 8.95 µM
SNB-75 CNS
  GI50: 5.02 µM
  TGI: 19.6 µM
HCC-2998 colon
  GI50: 1.76 µM
  TGI: 3.35 µM
HT29 colon
  GI50: 1.86 µM
  TGI: 3.86 µM
SF-539 CNS
  GI50: 2.15 µM
  TGI: 4.95 µM
SF-295 CNS
  GI50: 1.96 µM
  TGI: 3.77 µM
HS 578T breast
  GI50: 3.32 µM
  TGI: 17.1 µM
CAKI-1 renal
  GI50: 1.54 µM
  TGI: 3.3 µM
K-562 leukemia
  GI50: 2.25 µM
  TGI: > 100 µM
RPMI-8226 leukemia
  GI50: 2.88 µM
  TGI: > 100 µM
A549 NSCLC
  GI50: 2.76 µM
  TGI: 8.98 µM
NCI-H522 lung
  GI50: 15.9 µM
  TGI: 31.7 µM
NCI-H23 lung
  GI50: 2.19 µM
  TGI: 5.75 µM
SW-620 colon
  GI50: 1.68 µM
  TGI: 3.24 µM
EKVX NSCLC
  GI50: 5.7 µM
  TGI: 21.3 µM
M14 melanoma
  GI50: 1.8 µM
  TGI: 4.04 µM
CCRF-CEM leukemia
  GI50: 3.49 µM
  TGI: > 100 µM
A498 renal
  GI50: 12 µM
  TGI: 25.6 µM
UO-31 renal
  GI50: 9.62 µM
  TGI: 23.6 µM
BT-549 breast
  GI50: 8.31 µM
  TGI: 26 µM
NCI-H460 lung
  GI50: 1.88 µM
  TGI: 3.7 µM
786-0 renal
  GI50: 1.84 µM
  TGI: 3.4 µM
U251 CNS
  GI50: 2.05 µM
  TGI: 4.7 µM
ACHN renal
  GI50: 1.87 µM
  TGI: 3.6 µM
MCF7 breast
  GI50: 2.2 µM
  TGI: 5.64 µM
SR leukemia
  GI50: 1.87 µM
  TGI: 13.1 µM
OVCAR-5 ovarian
  GI50: 2.44 µM
  TGI: 6.7 µM
NCI/ADR-RES ovarian
  GI50: 2.02 µM
  TGI: 4.6 µM
SK-MEL-5 melanoma
  GI50: 16.1 µM
  TGI: 30.7 µM
MDA-MB-231 breast
  GI50: 1.96 µM
  TGI: 4.5 µM
SK-MEL-2 melanoma
  GI50: 2.5 µM
  TGI: 7.68 µM
SK-MEL-28 melanoma
  GI50: 1.97 µM
  TGI: 3.78 µM
TK-10 renal
  GI50: 14 µM
  TGI: 28.7 µM
HCT-15 colon
  GI50: 1.75 µM
  TGI: 3.71 µM
